From patent publication US12458666B2 (DOUBLE BOND PHARMACEUTICALS AB, priority 2019, dated 2025)
Read-outs that look alike come from different tables or passages of the source.

What was measured:
[1] = cited from earlier work; for Ferritin level after treatment: HF, ejection fraction <40% and anaemia
[2] = for median ferritin level: thirteen patients who took study medication according to protocol for 12 weeks, baseline 42 (32-57.5); for Hemoglobin / hsCRP / Hepcidin / Transferrin / Iron / TSAT (transferrin saturation) / Ferritin: intention to treat, 100 mg tablet orally twice a day; for Hemoglobin: 20 patients, baseline 144; for hsCRP: baseline 2.0; for Hepcidin: baseline 2.5; for Transferrin: baseline 2.6; for Iron: baseline 13.5; for TSAT (transferrin saturation): baseline 20; for Ferritin: baseline 47
Protocol: Most of these patients were screened during the year 2018 until January 2019 were the target population. […] These 42 patients defined by inclusion and exclusion criteria for participation were called by phone and informed about the study. After having given oral and written consent to participate blood sampling was performed to confirm or reject the presence of non-anemic ID.
• All patients with a case record diagnosis of HF, both those with preserved EF or reduced EF were potentially eligible, provided there were no contraindications to participate. • The diagnosis of HF was on symptoms and an ECHO verified reduction of cardiac function, systolic and/or diastolic dysfunction. Those with an EF=<40% were classified as HFrEF and those with EF>40% as preserved HF.
(§1) The study was planned as an open pilot study without placebo control. The study was performed at the research unit at the department of Medicine-Geriatric, a special heart failure case record with laboratory data was filed before the start of the study, after six weeks and after 3 months (±2 weeks) at the end of study. Adverse reactions and side effects were registered at each visit.
Inofer® is an oral product against ID in a form of film-coated tablets. […] The patients are given one tablet ( )twice a day during a period of at least three months.
1 tablet was taken in the morning and 1 tablet was taken in the evening at bedtime for at least 3 months. The tablet was not taken with food.
Blood sampling was performed according to local and current guidelines. Blood was centrifuged, divided into aliquots and stored at minus 80° C. in a safe deposit box, Biobank Västerbotten, until analysis. Hemoglobin, CRP, ferritin, serum iron, TSAT and hepcidin were analyzed before start, at 6 weeks and 3 months after treatment.
Continuous variables are presented as means ±standard deviation for normally distributed values, median and interquartile range for skewed variables, and numbers and percentages for categorical variables. Due to skewed variables for ferritin and TSAT non-parametric test was used for related or independent data. Data were analysed using IBM SPSS Software version 24 (IBM Corp. Chicago, Illinois, USA).

[3] = Protocol: as §1
[4] = irrespective if iron was given orally or intravenously; cited from earlier work
[5] = long-term intravenous therapy; cited from earlier work
[6] = cited from earlier work
[7] = after oral iron succinate treatment
[8] = percentage of patients exhibiting the symptom in the study

Compound: O=S(=O)([O-])[O-].[Fe+2] [ferrous sulphate]
- increase of TSAT, oral vs. intravenous administration of iron ([1]; oral 200 mg 3 times a day compared with intravenous iron sucrose): less
- Ferritin level after treatment ([1]; oral 200 mg 3 times a day, from 115±141): 218 ± 189 ng/mL

Compound: O=C([O-])CCC(=O)[O-].[Fe+2] [iron succinate, ferrous succinate]
- increase of ferritin levels in patients with HFpEF compared with HFrEF [2, 7]: about the same magnitude
- uptake (levels) in females compared with males [2, 7]: increased rather equally
- median ferritin level ([2]; at 6 weeks): 83 (61-110.5) μg/L
- median ferritin level ([2]; at 12 weeks): 87 µg/L
- Hemoglobin ([2]; median at 6 weeks): 138 g/L
- hsCRP ([2]; median at 6 weeks): 2.0 mg/L
- Hepcidin ([2]; median at 6 weeks, p=0.006): 4.8 nmol/L
- Transferrin ([2]; median at 6 weeks, p=0.038): 2.4 g/L
- Iron ([2]; median at 6 weeks): 16.5 µmol/L
- TSAT (transferrin saturation) ([2]; median at 6 weeks, p=0.046): 27%
- Ferritin ([2]; median at 6 weeks, p=0.009): 78 µg/L
- Hemoglobin ([2]; median at 12 weeks): 142 g/L
- hsCRP ([2]; median at 12 weeks): 1.9 mg/L
- Hepcidin ([2]; median at 12 weeks, p=0.026): 4.2 nmol/L
- Transferrin ([2]; median at 12 weeks, p=0.009): 2.3 g/L
- Iron ([2]; median at 12 weeks): 16.0 µmol/L
- TSAT (transferrin saturation) ([2]; median at 12 weeks, p=0.043): 25%
- Ferritin ([2]; median at 12 weeks, p=0.001): 85 µg/L
- TSAT at EOS ([2]; one patient who stopped study medication after 3.5 weeks, baseline 16): 21%
- ferritin level at EOS ([2]; one patient who stopped study medication after 3.5 weeks, baseline 198): 237 µg/L
- increase of ferritin level from baseline to EOS ([2]; one patient who took only one tablet per day for 2.5 weeks): 38%
- increase of ferritin level from baseline to EOS ([2]; one patient who took only one tablet per day for 6 weeks): 174%
- increase of ferritin level from baseline to EOS ([2]; one patient who took only one tablet per day for 7.5 weeks): 95%
- patients who stopped study medication because of vomiting or diarrhea ([3]; of 20 patients): Three
- patients who stopped study medication before EOS ([3]; of 20 patients): four
- Breathlessness, % [3, 8]: 90%
- Constipation, % [3, 8]: 20%
- Diarrhea, % [3, 8]: 5%
- Stomic pain, % [3, 8]: 10%
- Tiredness, % [3, 8]: 80%
- uptake compared to other iron compounds [4]: most favourable uptake

Compound: ferric carboxymaltose
- symptomatic and morbidity effects in patients with HF [5]: beneficial symptomatic and morbidity effects

Compound: iron polysaccharide
- uptake in iron deposits ([6]; high dose oral, 16 weeks, HFrEF): marginal uptake
- exercise capacity over 16 weeks ([6]; high dose oral, HFrEF): did not improve exercise capacity
- TSAT increase ([6]; oral 150 mg twice daily for 16 weeks, HFrEF (<40%) and iron deficiency, CI −3 to 7, placebo 0, p=0.003): 2%
- Ferritin increase ([6]; oral 150 mg twice daily for 16 weeks, HFrEF (<40%) and iron deficiency, CI −8 to 38, placebo 1): 18 ng/mL

Compound: iron sucrose
- Ferritin level after treatment ([1]; intravenous 200 mg per week for 5 weeks, from 167±149): 293 ± 270 ng/mL
